US6670366B1, “Pyrazolopyrimidinone cGMP PDE5 inhibitors for the treatment of sexual dysfunction” (Pfizer Inc, priority 1998, dated 2003)
pIC50: −log10 of the molar value.

Target: cGMP PDE5 (UniProt O76074)
Experiment: In vitro PDE inhibitory activity against cGMP PDE5
Type: biochemical, human or rabbit
Conditions: concentration of compound required for 50% inhibition of enzyme activity, read-out: IC50 as inhibitors of cGMP PDE5
Procedure: In vitro PDE inhibitory activities against cyclic guanosine 3′,5′-monophosphate (cGMP) and cyclic adenosine 3′,5′-monophosphate (cAMP) phosphodiesterases were determined by measurement of their IC50 values (the concentration of compound required for 50% inhibition of enzyme activity).
The required PDE enzymes were isolated from a variety of sources, including human corpus cavernosum, human and rabbit platelets, human cardiac ventricle, human skeletal muscle and bovine retina, essentially by the method of W. J. Thompson and M. M. Appleman (Biochem., 1971, 10, 311). In particular, the cGMP-specific PDE (PDE5) and the cGMP-inhibited cAMP PDE (PDE3) were obtained from human corpus cavernosum tissue, human platelets or rabbit platelets; the cGMP-stimulated PDE (PDE2) was obtained from human corpus cavernosum; the calcium/calmodulin (Ca/CAM)-dependent PDE (PDE1) from human cardiac ventricle; the cAMP-specific PDE (PDE4) from human skeletal muscle; and the photoreceptor PDE (PDE6) from bovine retina.
Assays were performed using modification of the “batch” method of W. J. Thompson et al. (Biochem., 1979, 18, 5228).

| SMILES | pIC50 |
| --- | --- |
| CCOc1ccc(S(=O)(=O)N2CCC(CC)CC2)cc1-c1nc2c(CC)n(Cc3ccccn3)nc2c(=O)[nH]1 [Example 4] | 7.58 |
| CCCOc1ccc(S(=O)(=O)N2CC(O)C2)cc1-c1nc2c(CCC)n(Cc3ccccn3)nc2c(=O)[nH]1 [Example 8] | 7.79 |
| CCCOc1ccc(S(=O)(=O)NC2CCN(C(=O)OCC)CC2)cc1-c1nc2c(CCC)n(Cc3ccccn3)nc2c(=O)[nH]1 [Example 10] | 7.85 |
| CCCc1c2nc(-c3cc(S(=O)(=O)N(C)C)cnc3OCC)[nH]c(=O)c2nn1Cc1ccccn1 [Example 19, 5-[5-(N,N-Dimethylaminosulfonyl)-2-ethoxypyridin-3-yl]-3-n-propyl-2-(pyridin-2-yl)methyl-2,6dihydro-7H-pyrazolo[4,3-d]pyrimidin-7-one] | 8.01 |
| CCCOc1ncc(S(=O)(=O)NCCN(C)C)cc1-c1nc2c(CCC)n(Cc3ccccn3)nc2c(=O)[nH]1 [Example 20, 5-(5-[(3-N,N-Dimethylamino)-1-ethylaminosulfonyl]-2-n-propoxypyridin-3-yl)-3-n-propyl-2-(pyridin-2-yl)methyl-2,6-dihydro-7H-pyrazolo[4,3-d]pyrimidin-7-one] | 8.07 |
| CCc1c2nc(-c3cc(S(=O)(=O)N4CCC(CC)CC4)cnc3OCCOC)[nH]c(=O)c2nn1Cc1ccccn1 [Example 22] | 7.99 |
